Test results published in the METLIN SMRT retention time set (Domingo-Almenara et al. 2019).

Experiment: gradient 5% acetonitrile 3 min, to 50% in 2 min, to 85% in 15 min, held 3 min, 100 µL/min
Conditions: column: Zorbax Extend-C18 2.1 x 50 mm; eluents: water / acetonitrile, 0.1% formic acid
In short: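 Retention time was recorded from adduct peaks, which were picked computationally and each inspected manually. Pure standards ran in mixtures of ~100 molecules on HPLC coupled to a quadrupole time-of-flight mass spectrometer, in positive and negative ionization mode, through a Zorbax Extend-C18 column (2.1 × 50 mm, 1.8 μm) at 100 μL/min. Eluents were water and acetonitrile, each with 0.1% formic acid.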

SMILES	RP-LC retention time [s]
COc1c(C(=O)NC(C)C)sc2ccc(F)cc12	952
CCOC(=O)c1c(C)[nH]c(C(=O)N2CCC(CC(=O)N3CCN(C4CCCCC4)CC3)CC2)c1C	624
O=C(NC1CCCCCC1)c1nc(N2CCCC2)c2ccccc2n1	759
CCc1ccc(C2=C(C)C(N3CCC(C(=O)NCCCN4CCCC4)CC3)=NS2(=O)=O)cc1	604
O=C(C1CCN(c2nc3cccnc3s2)CC1)N1CCCCC1	713
Cc1cc(C)cc(NC(=O)C2CCCN2S(=O)(=O)c2cc3c(cc2C)NC(=O)C(C)O3)c1 (stereo unspecified)	852
CCOC(=O)c1c(C)[nH]c(C(=O)N2CCC(CC(=O)NCc3ccc(N(C)C)cc3)CC2)c1C	620
Cc1nn(CC(=O)NCCN2CCCC2)c(=O)c2cc(-c3ccccc3)nn12	631
COc1ccc(OCc2nc(CCN(C)C(=O)c3ccco3)no2)cc1	782
O=S(=O)(c1cccc(Cl)c1)N1CCN(c2cnn3cnnc3c2)CC1	703
CCNc1nc(C)cc(N2CCN(S(=O)(=O)c3ccc(OC)c(C)c3C)CC2)n1	764
CCn1ccc(NC(=O)c2ccccc2C)n1	720
CCOc1ccccc1C(=O)NC1CCN(c2cc(-c3cccs3)[nH]n2)C1 (stereo unspecified)	769
COCCOCc1nc(C2CCN(S(=O)(=O)c3c(C)noc3C)CC2)no1	793
CCn1nc(C)c(S(=O)(=O)N2CCN(C(=O)C(C)Oc3cccc(Cl)c3)CC2)c1C (stereo unspecified)	850
Cc1cc(C)c2nc(C)cc(C(=O)NC(C)C)c2c1	650
CCCCN1N=C(C(=O)N2CCC(C)CC2)S(=O)(=O)c2ccc(C)cc21	1060
CCN1CCN(C(=O)c2cn(-c3ccc(S(=O)(=O)N4CCCC(C)C4)cn3)cn2)CC1 (stereo unspecified)	659

Other lines, results leading:

RP-LC retention time [s]	SMILES
1080	Cc1ccc(Nc2c(-c3cc(Br)ccc3F)nc3ccc(Cl)cn23)cc1
913	NS(=O)(=O)c1cccnc1Nc1ccc(Br)cc1
653	CCC1CCCCN1C(=O)c1cnc2nc(C)ccc2c1Nc1cccc(C(=O)OC)c1 (stereo unspecified)
1110	COc1ccc(-c2ncc3c(n2)CCN(S(=O)(=O)c2cccc(C(F)(F)F)c2)C3)cc1
838	CNC(=O)c1c(-c2ccc(F)cc2)oc2cc(N(CCO)S(C)(=O)=O)c(C3CC3)cc12
999	Cn1nc(-c2nnc(-c3ccc(F)cc3)o2)c2c1CCN(S(=O)(=O)Cc1ccccc1)C2
851	COc1ccc(Cl)cc1NC(=O)CSc1ccc(NC(=O)c2ccco2)nn1
795	C[C@H]1CN(C(=O)Cc2ccccc2F)C[C@@H]1c1nc(-c2cccnc2)no1
890	CCn1cc2c(n1)c(=O)n(Cc1ccccc1)c(=O)n2CC(=O)NCc1ccccc1Br
792	Cc1cc(-c2nnc(C3CC3)o2)c(C)n1CC(=O)Nc1ccc(F)cc1
822	O=S(=O)(Cc1ccc(F)cc1)NCCc1csc2nc(-c3cccs3)nn12
604	O=C(NCCSc1ncc(-c2ccc(F)cc2)[nH]1)c1ccccc1Cl
943	CCN(CC)c1nc(-c2ccc(C(C)(C)C)cc2)nc2ccccc12
887	COc1ccc(-c2cn3ccn(-c4ccc(Cl)cc4)c(=O)c3n2)cc1OC
751	CC(Oc1ccc(-c2cnc3ccccc3n2)cc1)C(=O)N1CCOCC1 (stereo unspecified)
1110	O=S(=O)(c1ccccc1C(F)(F)F)N1CCc2nc(-c3ccccc3)ncc2C1
692	CCN(CC)c1ncc(NC(=O)c2ccc(Br)cc2)cc1C(=O)O
682	CCN1C(=O)COc2ccc(-c3nc(NC(=O)c4cccc(C)c4)sc3C)cc21
